Laboratory results as given in patent publication US6897028B1, “Identification of molecular targets” (Florida State University, priority 1997, dated 2005).

Key:
[1] = tested on: 697 human acute leukemia pre-B cells; settings: 697 cells; cited from earlier work
[2] = target: human LIF (Homo sapiens, UniProt P15018); experiment: ELISA binding of biotinylated dioxin to LIF; settings: species not given
Experimental: The applicants utilized the same biotinylated dioxin as Petrenko in an ELISA assay for binding to LIF, to several mutants of the LIF protein changed in the EPFP homology domain (residues 50-53), to anti-dioxin antibodies as a positive control, and to ciliary neurotrophic factor (CNTF) (structurally similar to LIF but lacking the SEQ. ID NO. 5 motif) as a negative control. […] to human and murine LIF with a KD of approximately 10-100 μM, indicating an affinity approximately 10,000 fold less than the anti-dioxin antibodies used as a positive control.

[3] = target: GST (Schistosoma japonicum, UniProt P08515); experiment: Circular dichroism control: purified GST with and without taxol; format: binding; settings: GST alone
Experimental: In a control experiment, taxol was added to purified GST from S. japonicum. […] The differences are far smaller than the error bars, and there is no change in the 220/210 nm ratio, nor is a peak shift observed. This means that were there any net structural change within the GST molecule alone, it would involve less than 0.5% of its total secondary structure. […] Furthermore, this binding has significant structural consequences for the Bcl-2 protein, involving approximately 15% to 20% of the loop residues.

[4] = target: T1, Bcl-2/GST fusion protein (Homo sapiens, UniProt P10415); experiment: ELISA binding of Bcl-2/GST fusion protein to immobilized biotinylated taxane; settings: confirmation of binding of Bcl-2 to taxol
Excerpt: ELISA binding assays were used to determine if the Bcl-2/GST fusion protein binds directly to immobilized biotinylated taxol. Anti-Bcl-2 antibodies were used to detect Bcl-2 binding. […] The x-axis is the log nM concentration of protein in solution (Bcl-2 or Bcl-XL); the y-axis is the uncorrected optical density at 490 nm. The insert is the chemical structure of the biotinylated taxol used in the selection of peptides.

[5] = target: T1, Bcl-2/GST fusion protein; experiment: Circular dichroism spectroscopy of Bcl-2/GST with and without taxol; format: binding
Excerpt: Each spectrum is the averaged result of five spectra and subtracted baselines with standard deviations as indicated. These differences are much larger than the error bars (standard deviations) in the measurements, and involve a change in both the shape of the curve (ratio of the 220/210 nm peaks) and the peak positions. The secondary structures calculated for the Bcl-2 fusion protein with and without taxol differ by approximately 4%, and appear to involve a change in a region of the molecule that is found in a beta-turn conformation. This corresponds to the type of secondary structure which is predicted for the HTPHP-containing portion of the Bcl-2 loop region (SEQ. ID No. 3). […] Homology between TAX2.29 and human Bcl-2 lies between positions 1 through 12 and residues 55 through 66 respectively, inferring a minimum drug/protein interaction of at least twelve amino acids.

T1 sequence (P10415 whole entry, the tested form may be a part): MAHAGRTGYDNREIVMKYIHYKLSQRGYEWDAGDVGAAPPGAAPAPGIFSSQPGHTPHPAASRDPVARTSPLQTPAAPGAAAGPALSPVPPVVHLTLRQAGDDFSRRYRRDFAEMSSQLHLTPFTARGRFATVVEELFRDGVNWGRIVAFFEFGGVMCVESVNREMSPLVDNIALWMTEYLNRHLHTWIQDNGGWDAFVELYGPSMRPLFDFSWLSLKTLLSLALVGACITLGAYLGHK
GST, sequence (P08515 whole entry): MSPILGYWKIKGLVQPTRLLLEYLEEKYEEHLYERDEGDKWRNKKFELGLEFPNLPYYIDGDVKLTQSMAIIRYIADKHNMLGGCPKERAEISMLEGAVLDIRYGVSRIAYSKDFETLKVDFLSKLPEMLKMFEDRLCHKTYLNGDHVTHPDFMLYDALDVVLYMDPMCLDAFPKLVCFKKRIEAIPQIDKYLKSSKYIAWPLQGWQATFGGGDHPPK
human LIF, sequence (P15018 23-202): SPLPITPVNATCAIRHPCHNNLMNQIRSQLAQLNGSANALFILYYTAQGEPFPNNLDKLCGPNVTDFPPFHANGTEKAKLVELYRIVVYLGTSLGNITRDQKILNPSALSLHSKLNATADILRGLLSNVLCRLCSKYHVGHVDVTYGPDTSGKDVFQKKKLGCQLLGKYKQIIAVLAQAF

binding affinity in words [2] | CD spectra with and without taxol [3] | net structural change as share of total secondary structure [3] | binding affinity in words [4] | difference in calculated secondary structure with and without taxol ([5]; CD, beta-turn region) | conformational change upon binding taxol (CD spectrum) ([5]; spectra with and without taxol) | Structure (SMILES) | apoptosis [1] | phosphorylation of Bcl-2 [1]
 |  |  |  |  |  | CC(=O)O[C@@]12CO[C@@H]1C[C@H](O)[C@@]1(C)C(=O)[C@H](O)C3=C(C)[C@@H](OC(=O)[C@H](O)[C@@H](NC(=O)OC(C)(C)C)c4ccccc4)C[C@@](O)([C@@H](OC(=O)c4ccccc4)[C@H]21)C3(C)C [taxotere] | induces | induces
at least micromolar affinity |  |  |  |  |  | C1=COC=CO1 [dioxin] |  | 
 | virtually identical | less than 0.5% | micromolar affinity | approximately 4% | substantial conformational change | CC(=O)O[C@H]1C(=O)[C@@]2(C)[C@H]([C@H](OC(=O)c3ccccc3)[C@]3(O)C[C@H](OC(=O)[C@H](O)[C@@H](NC(=O)c4ccccc4)c4ccccc4)C(C)=C1C3(C)C)[C@]1(OC(C)=O)CO[C@@H]1C[C@@H]2O [taxol] | induces | induces
